# Assays:
# [1] = Absorption coefficient (absorbance of 0.001% solution in tetrahydrofuran); assay type: physicochemical; conditions: for Λ max (absorption maximum wavelength): 0.001% (wt/vol) in tetrahydrofuran, from 280 nm to 400 nm; for Absorption coefficient at 365 nm / Absorption coefficient at Λ max: 0.001% (wt/vol) solution in tetrahydrofuran
# Method: A 0.001% (wt/vol) solution of each of the compounds 1, 2, 4, 6, 8, 9, 11, 12, 13, 15, 16, D-1, D-3, D-4, D-7, D-8, D-9, D-12, D-14, D-15, D-20, C-1, and C-2 in tetrahydrofuran was prepared, and its absorbance was measured with a spectrophotometer (manufactured by Hitachi High-Technologies Corporation, trade name: “U-3900H”). An absorption maximum wavelength (Amax) at a wavelength of from 280 nm to 400 nm was read from an absorption spectrum obtained with the spectrophotometer.
# [2] = Solubility in PGME, PGMEA and ethyl lactate; assay type: physicochemical; conditions: for Solubility Ethyl lactate: in 100 parts by weight of ethyl lactate; for Solubility Ethyl lactate / Solubility PGMEA / Solubility PGME: room temperature; for Solubility PGMEA: in 100 parts by weight of propylene glycol monomethyl ether acetate; for Solubility PGME: in 100 parts by weight of propylene glycol monomethyl ether; for solubility (in words): photopolymerization initiator containing the compound
# Method: An evaluation for solubility was performed in accordance with the following evaluation criteria based on the dissolution amount.
# A: 10 Parts by weight or more of the photopolymerization initiator is dissolved.
# B: An amount in the range of from 5 parts by weight or more to less than 10 parts by weight of the photopolymerization initiator is dissolved.
# C: An amount in the range of from 2 parts by weight or more to less than 5 parts by weight of the photopolymerization initiator is dissolved.
# D: Less than 2 parts by weight of the photopolymerization initiator is dissolved.
# [3] = Decomposition point by thermal analysis (TG-DTA); assay type: physicochemical; conditions: 5.0 mg
# Method: The compounds 1, 2, 4, 6, 8, 9, 11, 12, 13, 15, 16, D-1, D-3, D-4, D-7, D-8, D-9, D-12, D-14, D-15, D-20, C-1, and C-2 were each subjected to measurement with a thermal analysis apparatus (TG-DTA) (manufactured by Rigaku Corporation, trade name: “Thermo Plus EVO TG 8120”) by using 5.0 mg thereof.
# [4] = Evaluation 1: 20-μm pattern line width of transparent photosensitive composition; conditions: for sensitivity to the active energy ray (in words): photopolymerization initiator containing the compound; for 20-μm pattern line width: transparent composition, initiator 0.4 mmol
# Method: After that, the mixture was filtered with a membrane filter having an aperture of 5 μm to provide a photosensitive composition.
# It should be noted that the fluorene-based compound as a photopolymerization initiator was used in such an amount that its molar quantity was kept constant in the respective examples and comparative examples.
# The glass substrate after the application was dried with a fan dryer at 90° C. for 10 minutes. Thus, a coating film (photosensitive layer) was formed. Next, the film was exposed to light having an exposure energy quantity of 5 mJ/cm^2, 10 mJ/cm^2, 20 mJ/cm^2, 40 mJ/cm^2, 60 mJ/cm^2, or 80 mJ/cm^2 by using a high-pressure mercury lamp (manufactured by Karl Suss, trade name: “MASK ALIGNER”) through a negative mask (mask width: 20 μm). Next, the resultant was immersed in a 0.1 wt % aqueous solution of tetramethylammonium hydroxide (TMAH) and then rinsed with pure water. The remaining cured film was subjected to the following evaluation.
# (§1) A larger value for the line width means higher sensitivity.
# [5] = Average transmittance of composition; assay type: physicochemical; conditions: photosensitive composition, quartz cell, optical path length 1 cm
# Method: The average transmittance (%) of each of the photosensitive resin compositions obtained in Examples 1 to 9, Examples 2-1 to 2-10, and Comparative Examples 1 and 2 in the range of from 400 nm to 700 nm was measured with a spectrophotometer (manufactured by Hitachi High-Technologies Corporation, trade name: “U-3900H”, quartz cell, optical path length; 1 cm).
# [6] = Transmittance of transparent cured film; assay type: physicochemical; conditions: for Average transmittance (700 nm to 400 nm) Transparent cured film / Transmittance (400 nm) Transparent cured film: cured at exposure energy quantity 80 mJ/cm^2; for transparency of photosensitive composition and formed product (in words): photopolymerization initiator containing the compound
# Method: Transparent cured films were formed by using the photosensitive compositions obtained in Examples 1 to 9, Examples 2-1 to 2-10, and Comparative Examples 1 and 2 in the same manner as in the evaluation 1 except that the exposure energy quantity was set to 80 mJ/cm^2. The transmittance (%) of each of the resultant transparent cured films at 400 nm and the average transmittance (%) thereof in the range of from 400 to 700 nm were measured with a spectrophotometer (manufactured by Hitachi High-Technologies Corporation, trade name: “U-3900H”, quartz cell, optical path length; 1 cm). A higher transmittance at 400 nm means less coloring with a yellow color. In addition, a higher transmittance of a coating film means a higher transmitting property of a pattern to be formed.
# [7] = Evaluation 3: 20-μm pattern line width of black photosensitive composition; conditions: black composition (carbon black, cardo resin), initiator 0.4 mmol
# Excerpt: The mixture was filtered with a membrane filter having an aperture of 5 μm to provide a photosensitive composition.
# Photosensitive compositions were each obtained in the same manner as in Example 10 except that the used fluorene-based compound and its usage were changed as shown in Table 5.
# Each of the photosensitive compositions obtained in Examples 10 to 15, Examples 2-11 to 2-20, and Comparative Example 3 was applied onto a glass substrate with a spin coater (manufactured by Kyowariken Co., Ltd., trade name: “K-359SD1”) so that its thickness after drying became 1.0 μm. The glass substrate after the application was dried with a fan dryer at 90° C. for 10 minutes. Thus, a coating film (photosensitive layer) was formed. Next, the film was exposed to light having an exposure energy quantity of 10 mJ/cm^2, 20 mJ/cm^2, 40 mJ/cm^2, 60 mJ/cm^2, or 80 mJ/cm^2 by using a high-pressure mercury lamp (manufactured by Karl Suss, trade name: “MASK ALIGNER”) through a negative mask (mask width: 20 μm). Next, the resultant was immersed in a 0.1 wt % aqueous solution of tetra methyl ammonium hydroxide (TMAH) and then rinsed with pure water. The remaining cured film was subjected to the following evaluation. In addition, FIGS. 2, 3, and 6 show microscope photographs of black cured films obtained by using the photosensitive compositions of Examples 10 and 11, and Comparative Example 3, and FIGS. 7 to 11 show microscope photographs of black cured films obtained by using the photosensitive compositions of Examples 2-11, 2-13, 2-14, 2-17, and 2-18.
# as §1
# [8] = exposure energy quantity 10 mJ/cm^2
# [9] = exposure energy quantity 20 mJ/cm^2
# [10] = exposure energy quantity 40 mJ/cm^2
# [11] = exposure energy quantity 60 mJ/cm^2
# [12] = exposure energy quantity 80 mJ/cm^2
SMILES,Λ max (absorption maximum wavelength) [1] [nm],Absorption coefficient at 365 nm [1] [mL/mg/cm],Absorption coefficient at Λ max [1] [mL/mg/cm],Decomposition point [3] [°C],sensitivity to the active energy ray (in words) [4],"20-μm pattern line width [4, 8]","20-μm pattern line width [4, 9]","20-μm pattern line width [4, 10]","20-μm pattern line width [4, 11]","20-μm pattern line width [4, 12]",Average transmittance (700 nm to 400 nm) Solution [5] [%],Average transmittance (700 nm to 400 nm) Transparent cured film [6] [%],Transmittance (400 nm) Transparent cured film [6] [%],20-μm pattern line width ([7]; 20 mJ/cm^2),20-μm pattern line width ([7]; 40 mJ/cm^2),20-μm pattern line width ([7]; 60 mJ/cm^2),20-μm pattern line width ([7]; 80 mJ/cm^2),20-μm pattern line width ([7]; 10 mJ/cm^2),other results
CC(=O)ON=C(C)c1ccc2c(c1)Cc1ccccc1-2 [Compound 16],296.5,0.1,97.7,240.9,–,–,–,–,–,–,–,–,–,–,–,–,–,–,Solubility Ethyl lactate [2]: C (An amount in the range of from 2 parts by weight or more to less than 5 parts by weight of the photopolymerization initiator is dissolved.); Solubility PGMEA [2]: B (An amount in the range of from 5 parts by weight or more to less than 10 parts by weight of the photopolymerization initiator is dissolved.); Solubility PGME [2]: B (An amount in the range of from 5 parts by weight or more to less than 10 parts by weight of the photopolymerization initiator is dissolved.)
CCCCCCC1(CCCCCC)c2cc(C(=NOC(C)=O)c3ccccc3C)ccc2-c2ccc([N+](=O)[O-])cc21 [Compound 2],–,–,–,–,additionally high sensitivity to the active energy ray,21.4,22.3,22.9,23.9,24.4,87.5,99.3,92.8,20.9,22.1,22.8,23.3,–,–
CCCC1(CCC)c2cc(C(=NOC(C)=O)c3ccc(C(C)(C)C)cc3)ccc2-c2ccc([N+](=O)[O-])cc21 [Compound D-2],–,–,–,–,additionally high sensitivity to the active energy ray,–,–,–,–,–,–,–,–,20.4,21.6,22.1,23.0,19.4,–
CCCCCCC1(CCCCCC)c2cc(C(=O)c3ccccc3C)ccc2-c2ccc(C(C)=NOC(C)=O)cc21 [Compound 6],–,–,–,–,–,19.7,20.2,21.1,21.7,22.7,95.4,97.3,99.6,20.2,21.1,21.7,22.7,19.7,transparency of photosensitive composition and formed product (in words) [6]: additionally excellent transparency
CCCCCCC1(CCCCCC)c2cc(C(=O)c3ccc([N+](=O)[O-])cc3)ccc2-c2ccc(C(CC(C)N(OC(C)=O)C(C)=O)=NOC(C)=O)cc21 (racemic) [Compound 12],335.5,11.8,43.0,195.2,–,19.8,20.0,21.0,21.2,21.5,77.8,99.8,99.7,–,–,–,–,–,–
CCCC1(CCC)c2cc(C(=NOC(C)=O)c3ccccc3C)ccc2-c2ccc([N+](=O)[O-])cc21 [Compound 1],–,–,–,–,additionally high sensitivity to the active energy ray,20.7,21.6,22.6,23.3,23.8,88.7,99.3,92.0,21.2,22.1,23.2,23.3,20.2,solubility (in words) [2]: additionally excellent solubility
CCCC1(CCC)c2ccccc2-c2ccc(/C(C)=N/OC(C)=O)cc21 [Compound 15],315.0,0.0,70.0,280.0,–,–,–,–,–,–,–,–,–,–,–,–,–,–,Solubility Ethyl lactate [2]: D (Less than 2 parts by weight of the photopolymerization initiator is dissolved.); Solubility PGMEA [2]: C (An amount in the range of from 2 parts by weight or more to less than 5 parts by weight of the photopolymerization initiator is dissolved.); Solubility PGME [2]: D (Less than 2 parts by weight of the photopolymerization initiator is dissolved.)
CCCCCCC1(CCCCCC)c2cc(C(=O)c3ccccc3)ccc2-c2ccc(C(C)=NOC(C)=O)cc21 [Compound 8],–,–,–,–,additionally high sensitivity to the active energy ray,19.6,20.1,21.7,22.7,23.0,95.4,100.0,100.0,20.1,21.7,22.7,23.0,19.6,transparency of photosensitive composition and formed product (in words) [6]: additionally excellent transparency; solubility (in words) [2]: additionally excellent solubility
